Values quoted from earlier work, collected in article PMC9516332 (Frontiers in Oncology, 2022).
Like-named read-outs stand apart in the source and are kept apart here.

Experiments:
Conditions in all cases: cited from earlier work
[1] = target: panel of 255 wild-type kinases (Homo sapiens, UniProt P43405)
[2] = target: panel of 255 wild-type kinases (Homo sapiens, UniProt P35968)
[3] = target: panel of 255 wild-type kinases (Homo sapiens, UniProt Q13464)
[4] = target: panel of 255 wild-type kinases (Homo sapiens, UniProt P08069)
[5] = target: panel of 255 wild-type kinases (Homo sapiens, UniProt Q16654)
[6] = target: panel of 255 wild-type kinases (Homo sapiens, UniProt P49759)
[7] = target: panel of 255 wild-type kinases (Homo sapiens, UniProt Q8N4C8)
[8] = target: panel of 255 wild-type kinases (Homo sapiens, UniProt P49760)
[9] = target: T1, panel of 255 wild-type kinases (Homo sapiens, UniProt O94806)
T1 sequence (O94806 1-890): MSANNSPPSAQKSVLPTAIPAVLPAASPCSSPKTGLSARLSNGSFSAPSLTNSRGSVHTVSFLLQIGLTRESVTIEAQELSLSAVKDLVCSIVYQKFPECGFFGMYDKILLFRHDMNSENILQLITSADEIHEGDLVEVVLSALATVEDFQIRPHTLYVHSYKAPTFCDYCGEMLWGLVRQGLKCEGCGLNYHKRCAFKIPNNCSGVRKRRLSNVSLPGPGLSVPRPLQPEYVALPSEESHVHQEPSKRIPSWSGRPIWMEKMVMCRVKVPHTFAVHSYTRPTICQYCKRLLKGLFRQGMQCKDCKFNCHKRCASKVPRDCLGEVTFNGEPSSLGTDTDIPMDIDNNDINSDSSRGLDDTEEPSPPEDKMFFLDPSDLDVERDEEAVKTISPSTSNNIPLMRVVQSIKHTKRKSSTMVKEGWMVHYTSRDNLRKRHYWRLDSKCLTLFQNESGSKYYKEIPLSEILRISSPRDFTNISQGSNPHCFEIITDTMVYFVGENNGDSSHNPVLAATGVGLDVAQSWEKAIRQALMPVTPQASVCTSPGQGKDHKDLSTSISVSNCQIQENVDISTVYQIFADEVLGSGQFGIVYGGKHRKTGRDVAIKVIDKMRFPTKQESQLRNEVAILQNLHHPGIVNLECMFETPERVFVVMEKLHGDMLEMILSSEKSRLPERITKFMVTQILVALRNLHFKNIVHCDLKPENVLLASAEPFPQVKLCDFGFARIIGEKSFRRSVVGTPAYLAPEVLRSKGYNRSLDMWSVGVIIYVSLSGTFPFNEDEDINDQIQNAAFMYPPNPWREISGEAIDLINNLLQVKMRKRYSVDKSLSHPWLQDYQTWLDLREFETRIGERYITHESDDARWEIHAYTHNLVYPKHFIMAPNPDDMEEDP

[10] = target: T2, panel of 255 wild-type kinases (Homo sapiens, UniProt Q9NWZ3)
T2 sequence (Q9NWZ3 1-460): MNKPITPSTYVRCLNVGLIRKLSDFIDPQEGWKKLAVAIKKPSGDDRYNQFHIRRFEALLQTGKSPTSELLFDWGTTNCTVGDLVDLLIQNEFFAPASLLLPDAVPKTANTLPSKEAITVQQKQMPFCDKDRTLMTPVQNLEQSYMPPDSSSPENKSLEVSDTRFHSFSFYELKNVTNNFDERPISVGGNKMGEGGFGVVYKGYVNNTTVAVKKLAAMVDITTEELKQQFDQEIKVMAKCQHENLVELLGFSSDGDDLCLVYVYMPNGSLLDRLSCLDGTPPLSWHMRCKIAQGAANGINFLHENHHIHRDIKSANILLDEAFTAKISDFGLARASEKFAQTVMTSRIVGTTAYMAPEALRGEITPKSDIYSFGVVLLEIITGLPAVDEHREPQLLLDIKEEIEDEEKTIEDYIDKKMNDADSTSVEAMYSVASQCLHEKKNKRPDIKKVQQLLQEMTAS

[11] = kinase SYK, 1 µmol/L single concentration, ref DOI: 10.1158/1535-7163.MCT-18-0877
[12] = kinase KDR, 1 µmol/L single concentration, ref DOI: 10.1158/1535-7163.MCT-18-0877
[13] = kinase ROCK1, 1 µmol/L single concentration, ref DOI: 10.1158/1535-7163.MCT-18-0877
[14] = kinase IGF1R, 1 µmol/L single concentration, ref DOI: 10.1158/1535-7163.MCT-18-0877
[15] = kinase PDHK4, 1 µmol/L single concentration, ref DOI: 10.1158/1535-7163.MCT-18-0877
[16] = kinase CLK1, 1 µmol/L single concentration, ref DOI: 10.1158/1535-7163.MCT-18-0877
[17] = MINK, 1 µmol/L single concentration, ref DOI: 10.1158/1535-7163.MCT-18-0877
[18] = kinase CLK2, 1 µmol/L single concentration, ref DOI: 10.1158/1535-7163.MCT-18-0877
[19] = kinase PKD3, 1 µmol/L single concentration, ref DOI: 10.1158/1535-7163.MCT-18-0877
[20] = kinase IRAK4, 1 µmol/L single concentration, ref DOI: 10.1158/1535-7163.MCT-18-0877
[21] = kinase PDHK4, 1 µmol/L single concentration, ref DOI: 10.1371/journal.pone.0092146
[22] = kinase CLK1, 1 µmol/L single concentration, ref DOI: 10.1371/journal.pone.0092146
[23] = MINK, 1 µmol/L single concentration, ref DOI: 10.1371/journal.pone.0092146
[24] = kinase CLK2, 1 µmol/L single concentration, ref DOI: 10.1371/journal.pone.0092146

Row | Compound | %-inhibition at 1 µmol/L, SYK [1, 11] | %-inhibition at 1 µmol/L, KDR [2, 12] | %-inhibition at 1 µmol/L, ROCK1 [3, 13] | %-inhibition at 1 µmol/L, IGF1R [4, 14] | %-inhibition at 1 µmol/L, PDHK4 [5, 15] | %-inhibition, MINK [7, 17] | %-inhibition at 1 µmol/L, PKD3 [9, 19] | %-inhibition at 1 µmol/L, IRAK4 [10, 20] | also measured
1 | CC#CC(=O)N1CCC[C@H]1c1nc(-c2ccc(C(=O)Nc3ccccn3)cc2)c2c(N)nccn12 [acalabrutinib] | -19% | 7% | -8% | 0.466% | 0.391% | -1.13% | -2% | -6.55% | %-inhibition at 1 µmol/L, CLK1 [6, 16]: -8%; %-inhibition at 1 µmol/L, CLK2 [8, 18]: -7%
2 | CCc1cc2c(cc1N1CCC(N3CCOCC3)CC1)C(C)(C)c1[nH]c3cc(C#N)ccc3c1C2=O [alectinib] | -9% | 18% | -2% | 10% | 1.7% | – | 2.17% | 19% | %-inhibition at 1 µmol/L, CLK1 [6, 16]: 43%; %-inhibition at 1 µmol/L, CLK2 [8, 18]: 14%
3 | COc1cc(N2CCC(N3CCN(C)CC3)CC2)ccc1Nc1ncc(Cl)c(Nc2ccccc2P(C)(C)=O)n1 [brigatinib] | – | – | – | – | – | – | – | – | %-inhibition at 1 µmol/L, SYK [1]: 68%; %-inhibition at 1 µmol/L, KDR [2]: 86%; %-inhibition at 1 µmol/L, ROCK1 [3]: 25%; %-inhibition at 1 µmol/L, IGF1R [4]: 99%; %-inhibition at 1 µmol/L, PDHK4 [5]: 5%; %-inhibition at 1 µmol/L, CLK1 [6]: 100%; %-inhibition, MINK [7]: 6%; %-inhibition at 1 µmol/L, CLK2 [8]: 91%; %-inhibition at 1 µmol/L, PKD3 [9]: 85%; %-inhibition at 1 µmol/L, IRAK4 [10]: 46%
4 | C[C@@H](Oc1cc(-c2cnn(C3CCNCC3)c2)cnc1N)c1c(Cl)ccc(F)c1Cl [crizotinib] | – | – | – | – | – | – | – | – | %-inhibition at 1 µmol/L, ROCK1 ([3]; kinase ROCK1, 1 µmol/L single concentration, ref DOI: 10.1371/journal.pone.0092146): 3.39%; %-inhibition at 1 µmol/L, IGF1R ([4]; kinase IGF1R, 1 µmol/L single concentration, ref DOI: 10.1371/journal.pone.0092146): 80%; %-inhibition at 1 µmol/L, PDHK4 [5, 21]: -3.76%; %-inhibition at 1 µmol/L, CLK1 [6, 22]: 13%; %-inhibition, MINK [7, 23]: 0%; %-inhibition at 1 µmol/L, CLK2 [8, 24]: -6%; %-inhibition at 1 µmol/L, IRAK4 ([10]; kinase IRAK4, 1 µmol/L single concentration, ref DOI: 10.1371/journal.pone.0092146): 8%
5 | CC(C)(C)c1nc(-c2cccc(NS(=O)(=O)c3c(F)cccc3F)c2F)c(-c2ccnc(N)n2)s1 [dabrafenib] | – | – | – | – | – | – | – | – | %-inhibition at 1 µmol/L, SYK ([1]; kinase SYK, 1 µmol/L single concentration, ref DOI: 10.1371/journal.pone.0092146): 37%; %-inhibition at 1 µmol/L, PDHK4 [5, 21]: -1%; %-inhibition at 1 µmol/L, CLK1 [6, 22]: 7%; %-inhibition, MINK [7, 23]: -0.772%; %-inhibition at 1 µmol/L, CLK2 [8, 24]: 0.875%; %-inhibition at 1 µmol/L, PKD3 ([9]; kinase PKD3, 1 µmol/L single concentration, ref DOI: 10.1371/journal.pone.0092146): 93%
6 | C=CC(=O)N1CCC[C@@H](n2nc(-c3ccc(Oc4ccccc4)cc3)c3c(N)ncnc32)C1 [ibrutinib] | -20% | 84% | -5.42% | 7.45% | – | -6.41% | 5.48% | -5% | –
7 | CO[C@@H]1[C@H](N(C)C(=O)c2ccccc2)C[C@H]2O[C@]1(C)n1c3ccccc3c3c4c(c5c6ccccc6n2c5c31)C(=O)NC4 [midostaurin] | 97% | – | 13% | 24% | 1.09% | 88% | – | 27% | –
